# Laboratory results taken from patent publication US6426343B1, “Preparation and use of a specific GABA-Aα5 receptor ligand for treatment of Alzheimer's disease” (Merck Sharp & Dohme Ltd., priority 1995, dated 2002).
# Legend:
# Spinal cord (α2/3) = test: In vivo [3H]Ro 15-1788 binding, spinal cord; details: for percentage inhibition of in vivo [3H]Ro 15-1788 binding, spinal cord: 30 min, mean±SEM, relative to vehicle
# Experimental: (§1) The in vivo binding of [^3H]Ro 15-1788 to mouse brain was performed essentially as described by Goeders and Kuhar (1985). Male Swiss-Webster mice received a 0.9% NaCl solution containing 50 mCi/kg of [^3H]Ro 15-1788 (0.05 ml/10 g of body weight) via the tail vein. […] Each mouse brain was then rapidly removed, homogenised in 5.0 ml of 50 mM Tris HCl, 5.0 mM EDTA, pH 7.4 at 4° C. using an ultra-turrax homogeniser for 10 s at setting 5. In a separate series of experiments different brain regions, selected for their preferential expression of particular GABA subtypes were also examined. Binding of [^3H]Ro 15-1788 to cerebellum is almost exclusively α1-like (Quirk et al, 1994), whereas binding to spinal cord is indicative of binding to receptors containing α2 or α3-subtypes, α1, α4 and α5 are rare or absent in this region (Wisden et al, 1992). Brains were rapidly dissected into forebrain and cerebellum and the spinal cord was also removed. Each forebrain was homogenised in 4.0 ml of buffer (approximately 14 ml/g wet weight of tissue), each cerebellum was homogenised in 1.0 ml of buffer (approximately 14 ml/g wet weight of tissue) and each spinal cord in 1.0 ml of buffer (approximately […] wet weight of tissue). Volumes ([…]) of homogenate were filtered rapidly through GF/B filters, washed with 2×5.0 ml volumes of ice-cold buffer and the residual radioactivity was counted by liquid scintillation spectroscopy.
# (§2) Mice were injected intraperitoneally with FG 8094, 10 mg/kg or 1 mg/kg, 30 minutes prior to sacrifice and [^3H]Ro 15-1788 (0.1 mCi/g). Brain regions were dissected, homogenised and filtered as described in methods.
# [1] = tested on: benzodiazepine binding site of α2/3-containing GABA receptors; test: In vivo [3H]Ro 15-1788 binding, spinal cord; details: male, Swiss-Webster, mouse, in vivo, 1 mg/kg
# Experimental: as §1, §2
# α5-containing receptors = test: Occupancy of α5-containing receptors calculated by Clarke's equation; format: in vivo, mouse
# Experimental: If it is assumed that the percentage inhibition of in vivo [^3H]Ro 15-1788 binding is a measure of receptor occupancy then the concentration at the receptor site in brain can be calculated according to Clarke's equation (occupancy=[drug]/[drug]+Ki). Substituting the occupancy determined at α1 and α2/3-containing receptors, the concentration of FG 8094 available at BZ binding sites in […] is 7.8 nM and 13.2 nM respectively. Occupancy at α5-containing receptors cannot be measured directly because of the low abundance of the receptor, but it can be calculated using the concentration of drug and binding affinity using Clarke's equation. This predicts 95-97 % occupancy of α5-containing receptors 30 min after administration of FG 8094 (1 mg/kg).
smiles,measurement,setting,value
"CCOC(=O)c1ncn2c1[C@@H]1CCCN1C(=O)c1cc(OC)ccc1-2 [FG 8094, 9H-imidazo[1,5-a]pyrrolo[2,1-C][1,4]benzodiazepine-1-carboxylic acid, 11, 12, 13, 13a-tetrahydro-7-methoxy-9-oxo-, ethyl ester, (S)-(9CI)]",occupancy of α2/3 receptors,Spinal cord (α2/3); 1.0 mg/kg,less than 35%
same,"percentage inhibition of in vivo [3H]Ro 15-1788 binding, spinal cord",Spinal cord (α2/3); 1 mg/kg ip,33.8 ± 7.4
same,"percentage inhibition of in vivo [3H]Ro 15-1788 binding, spinal cord",Spinal cord (α2/3); 10 mg/kg ip,74.2 ± 3.8
same,concentration at 30 min,[1],13.2 nM
same,occupancy of α5-containing receptors,α5-containing receptors; 1.0 mg/kg,virtually all
same,predicted occupancy of α5-containing receptors,"α5-containing receptors; 30 min after 1 mg/kg, Clarke's equation",95-97%
